Reference: PubChem BioAssay (NCI)
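Values below derive from 48-hour exposures of cells grown in 96-well plates, with endpoints linearly interpolated between the two concentrations bracketing the appropriate inhibition level. TGI is the concentration that stops growth completely.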

Tests used:
Assay in all cases: inhibition of tumour cell growth, NCI panel, 48 h
NCI/ADR-RES ovarian = tested on: NCI/ADR-RES ovarian
SN12C renal = tested on: SN12C renal
SF-295 CNS = tested on: SF-295 CNS
EKVX NSCLC = tested on: EKVX NSCLC
LOX IMVI melanoma = tested on: LOX IMVI melanoma
OVCAR-5 ovarian = tested on: OVCAR-5 ovarian
HOP-62 NSCLC = tested on: HOP-62 NSCLC
T-47D breast = tested on: T-47D breast
TK-10 renal = tested on: TK-10 renal
SW-620 colon = tested on: SW-620 colon
HCT-15 colon = tested on: HCT-15 colon
K-562 leukemia = tested on: K-562 leukemia
ACHN renal = tested on: ACHN renal
UACC-62 melanoma = tested on: UACC-62 melanoma
UO-31 renal = tested on: UO-31 renal
SF-268 CNS = tested on: SF-268 CNS
CCRF-CEM leukemia = tested on: CCRF-CEM leukemia
SK-MEL-2 melanoma = tested on: SK-MEL-2 melanoma
NCI-H226 lung = tested on: NCI-H226 lung
RXF 393 renal = tested on: RXF 393 renal
HCC-2998 colon = tested on: HCC-2998 colon
MCF7 breast = tested on: MCF7 breast
MDA-N = tested on: MDA-N
HOP-92 NSCLC = tested on: HOP-92 NSCLC
HCT-116 colon = tested on: HCT-116 colon
MDA-MB-231 breast = tested on: MDA-MB-231 breast
SNB-19 CNS = tested on: SNB-19 CNS
A549 NSCLC = tested on: A549 NSCLC
SK-OV-3 ovarian = tested on: SK-OV-3 ovarian
OVCAR-4 ovarian = tested on: OVCAR-4 ovarian
A498 renal = tested on: A498 renal
DU-145 prostate = tested on: DU-145 prostate
OVCAR-3 ovarian = tested on: OVCAR-3 ovarian
MDA-MB-435 = tested on: MDA-MB-435
RPMI-8226 leukemia = tested on: RPMI-8226 leukemia
786-0 renal = tested on: 786-0 renal
SK-MEL-28 melanoma = tested on: SK-MEL-28 melanoma
SNB-75 CNS = tested on: SNB-75 CNS
SF-539 CNS = tested on: SF-539 CNS
HS 578T breast = tested on: HS 578T breast
SK-MEL-5 melanoma = tested on: SK-MEL-5 melanoma
PC-3 prostate = tested on: PC-3 prostate
UACC-257 melanoma = tested on: UACC-257 melanoma
KM12 colon = tested on: KM12 colon
M14 melanoma = tested on: M14 melanoma
U251 CNS = tested on: U251 CNS
CAKI-1 renal = tested on: CAKI-1 renal

SMILES: CC1(C)[C@@H](Cn2nnc3c(N)ncnc32)CC[C@@]1(C)CO
- TGI (NCI/ADR-RES ovarian): > 100 µM
- TGI (SN12C renal): > 100 µM
- TGI (SF-295 CNS): > 100 µM
- TGI (EKVX NSCLC): > 100 µM
- TGI (LOX IMVI melanoma): > 100 µM
- TGI (OVCAR-5 ovarian): > 100 µM
- TGI (HOP-62 NSCLC): > 100 µM
- TGI (T-47D breast): > 100 µM
- TGI (TK-10 renal): > 100 µM
- TGI (SW-620 colon): > 100 µM
- TGI (HCT-15 colon): > 100 µM
- TGI (K-562 leukemia): > 100 µM
- TGI (ACHN renal): > 100 µM
- TGI (UACC-62 melanoma): > 100 µM
- TGI (UO-31 renal): > 100 µM
- TGI (SF-268 CNS): > 100 µM
- TGI (CCRF-CEM leukemia): > 100 µM
- TGI (SK-MEL-2 melanoma): > 100 µM
- TGI (NCI-H226 lung): > 100 µM
- TGI (RXF 393 renal): > 100 µM
- TGI (HCC-2998 colon): 29 µM
- TGI (MCF7 breast): > 100 µM
- TGI (MDA-N): > 100 µM
- TGI (HOP-92 NSCLC): > 100 µM
- TGI (HCT-116 colon): > 100 µM
- TGI (MDA-MB-231 breast): > 100 µM
- TGI (SNB-19 CNS): > 100 µM
- TGI (A549 NSCLC): > 100 µM
- TGI (SK-OV-3 ovarian): > 100 µM
- TGI (OVCAR-4 ovarian): > 100 µM
- TGI (A498 renal): > 100 µM
- TGI (DU-145 prostate): > 100 µM
- TGI (OVCAR-3 ovarian): > 100 µM
- TGI (MDA-MB-435): > 100 µM
- TGI (RPMI-8226 leukemia): > 100 µM
- TGI (786-0 renal): > 100 µM
- TGI (SK-MEL-28 melanoma): > 100 µM
- TGI (SNB-75 CNS): > 100 µM
- TGI (SF-539 CNS): > 100 µM
- TGI (HS 578T breast): > 100 µM
- TGI (SK-MEL-5 melanoma): > 100 µM
- TGI (PC-3 prostate): > 100 µM
- TGI (UACC-257 melanoma): > 100 µM
- TGI (KM12 colon): > 100 µM
- TGI (M14 melanoma): > 100 µM
- TGI (U251 CNS): > 100 µM
- TGI (CAKI-1 renal): > 100 µM
